According to patent US20240287054A1, “COMPOUNDS THAT BIND NON-CANONICAL G-QUADRUPLEX STRUCTURES AND METHODS OF MAKING AND USING THE SAME” (The U.S.A., as Represented by the Secretary, Department of …, priority 2021, published 2024):
Where two headings read alike, the source gives them in different places. Blank lines part the entries; values can stand above or below the compound they belong to.

How the values were obtained:
[1] = Solubility / aggregation observations in binding buffers; type: physicochemical; settings: assay buffers, SPR sensorgrams
Protocol: A systematic binding assay between 14 analogs and MYCN G4 was performed by SPR and 2-AP (A11) fluorescence titration (FIGS. 26A-26N, 27A-27N). […] For 2-AP fluorescence titration assay (using an A11-substituted construct) observed KD values aligned well with SPR experiments, although the values were slightly lower overall. […] Taking all the SAR data into consideration, MY-8 was elected for cell-based assays.

MYCN G4 DNA = experiment: Surface plasmon resonance (SPR) with immobilized biotinylated MYCN G4 DNA; type: binding, human
Protocol: Surface plasmon resonance (SPR) analysis. The SPR binding assays were performed with a BIAcore 3000 (GE Healthcare) instrument. A CM5 SPR biochip was loaded into the system and primed with running buffer (10 mM Tris, pH7.0, 100 mM KCl, 0.005% Tween 20, 5% DMSO) with a flow rate of 5 μL/min. Then both Flow Cell (Fc) 1 and 2 were activated by EDC/NHS (0.4 M/0.1 M) aqueous solution for 15 min, followed with an injection of streptavidin (SA) solution (0.2 mg/mL in 10 mM sodium acetate buffer, pH4.5) for 30 minutes. After the immobilization amount of SA reached 8,000-10,000 RU, the surface was deactivated by flowing 1 M Ethanolamine aqueous solution (pH 8.5) for 10 min and regenerated with 10 mM NaOH for 2 min to remove the unbound SA. In the meantime, biotinylated MYCN G4 DNA was prepared at 5 μM in the annealing buffer and heated up to 95° C. for 5 min and slowly cooled down. After annealing, a total of 150 μL solution was injected in the Fc 2 of SPR system for 30 min to immobilize DNA onto the chip surface. The small molecule solutions were tested once the baseline was stable.
To detect the binding signal as well as the binding affinity, a higher flowing rate (25 μL/min) was used in both Fc 1 (reference) and Fc 2 (DNA). Each of the compound solution was prepared at 20× designed the concentrations in DMSO, and then diluted into non-DMSO running buffer, resulting in a final concentration of 5% DMSO. Then, a total of 50 μL compound solution was injected in Fc 1-2 flow path for 120 s for association, followed with 200 s running of buffer for dissociation. An injection of 50 μL regeneration buffer (1 M KCl) could be performed between two samples if necessary. The final binding curve was obtained by reference subtraction. To determine the binding affinity (KD), a series of diluted compound solutions were injected and KD was calculated by BIAevaluation 4.0 software (GE Healthcare) using Langmuir 1:1 binding model.
In this example, SPR binding assays were performed to analyze binding activity of representative bivalent compounds of the present disclosure. The compounds of this example included a non-canonical binder component and a G4 stacker component. A BIAcore 3000 (GE Healthcare) instrument was used. A CM5 SPR biochip was used and primed with running buffer (10 mM Tris, pH7.0, 100 mM KCl, 0.005% Tween 20, 5% DMSO). To immobilize the compounds onto the chip surface, the flow rate was set as 5 μL/min. Then the carboxylated dextran on the chip surface was activated by EDC/NHS (0.4 M/0.1 M) aqueous solution for 15 min, followed with an injection of streptavidin (SA) solution (0.2 mg/mL in 10 mM sodium acetate buffer, pH 4.5) for 30 minutes. After the immobilization amount of SA, the surface was quenched by injecting 1 M ethanolamine (EA) aqueous solution (pH 8.5) for 10 min and regenerated with 10 mM NaOH for 2 min to remove the physical adsorption. Furthermore, biotinylated MYCN G4 DNA was prepared at 5 μM in the annealing buffer and heated up to 95° C. for 5 min followed with slowly cooling down to room temperature within 1 h. After annealing, a total of 150 μL solution was injected in the Fc 2 of SPR system for 30 min to immobilize DNA onto the chip surface. The compound solutions were then tested once the baseline was stable.
To detect the binding signal as well as the binding affinity, a higher flowing rate (25 μL/min) was used in both Fc 1 (blank) and Fc 2 (target). Each of the compound solutions was prepared at 20× designed the concentrations in DMSO, and then diluted into non-DMSO running buffer, resulting in a final concentration of 5% DMSO. Then, a total of 50 μL compound solution was injected in Fc 1-2 flow path for 120 s for association, followed with 200 s running of buffer for dissociation. An injection of 50 μL regeneration buffer (1 M KCl) could be performed between two samples if necessary. The final binding curve was obtained by referencing the blank channel (Fc 1). […]

dsDNA = experiment: SPR binding to dsDNA; settings: up to 5 μM compound injection
MYCN hairpin-G4 DNA = experiment: FIA using compound fluorescence (Ex 340/Em 500 nm), titration with unlabeled MYCN G4 DNA; type: binding, human; settings: 100 nM compound titrated with folded unlabeled MYCN G4
Protocol: In this study, FIA was used for validating the bindings between certain bivalent and MYCN G4 oligos. To measure the binding affinity, a solution of each compound was prepared in triplicate in a 96 well-plate (Costar, black side clear bottom), resulting in a final concentration of 100 nM (5% final DMSO in the working solution). Unlabeled MYCN G4 DNA was folded based on the above-mentioned annealing method, then added into the well plate resulting in different concentrations by a seral dilution. The plate was incubated at room temperature for 30 min, followed by centrifuging at 500 rpm for 2 minutes. The fluorescence intensity was then quantitatively recorded by a Synergy Mx microplate reader (BioTek) at Ex 340 nm/Em 500 nm. The fluorescence intensities were then normalized, and the binding affinity was calculated by fitting the curve using one-site total model in GraphPad Prism 8.3.1 software.

[2] = system: 12 different G4 oligos as well as non-G4 oligos (dsDNA and ssDNA); experiment: Small-scale DNA G4 microarray binding selectivity; settings: fluorescent compound incubated 1 h; B33 at 2.5 μM
Protocol: In this example, a small-scale DNA G4 microarray containing 12 different G4 oligos as well as non-G4 oligos (dsDNA and ssDNA) was fabricated and tested (Table 4). To start with, a SA-coated glass surface was prepared. An amino-functionalized glass slide was firstly modified with a solution of N, N′-disuccinimidyl carbonate (DSC, 1.0 M) and N, N-diisopropylethylamine (DIPEA, 1.0 M) in DMF overnight at room temperature. After being washed successively with EtOH, Milli-Q water (5 min each) and dried with N2 gas, the slide was incubated with 1 mg/mL of SA solution for 12 h (overnight) in a 4° C. fridge, followed by blocking the surface with EA buffer for 30 minutes. Then, the slide was rinsed with PBS buffer and Milli-Q water, and dried b centrifugation (1,700 g, 2 min).
In parallel, biotin-labeled DNA/RNA oligos were prepared in annealing buffer resulting in 5 μM stock solutions, followed by annealing (according to above methods). Then all the oligo solutions were transferred into a 384-well plate. Next, the microarray printing was conducted by a robotic arrayer (Nanoprint, Arrayit, USA) with a humidity of 60%. After the microarray was fabricated, the slide was placed in a slide box with a piece of wet Kimwipe tissue and incubated at 4° C. for 2 h.
To incubate with the fluorescent compounds (compound B33, thiazole orange (“TO”), and amsacrine), the slide was thoroughly rinsed with PBST, PBS, and water to remove the unbounded oligos. Then, the slide was dried by centrifugation (1,700 g, 2 min) and quickly assembled with microarray gaskets (Agilent, USA), followed by loading the compound solutions. After 1 h incubation, the slide was washed and dried with the above-mentioned method. Finally, the microarray slide was imaged by a fluorescence scanner (Mapix) using green channel and the fluorescence intensities were quantified.

[3] = system: ~19,000 different G4 sequences, G4 and non-G4 controls; experiment: High-density DNA oligo microarray (~19,000 G4 sequences) selectivity profiling; type: binding; settings: 500 nM compound
Excerpt: To further characterize the binding selectivity of compound B33, high-density and large-scale DNA microarrays that contained ˜19,000 different G4 sequences were fabricated and used. In this microarray, 340 reported G4s (G-rich sequences) as well as 280 non-G4s (C-rich sequences) were designed as positive and negative controls. Additionally, over 17,000 canonical G4 oligos with short loops (1˜7 nt) were also designed and synthesized by varying the loop sequences to meet the diversity of G4 structure. After folding the surface-grafted DNA oligos in high concentration of KCl buffer, TO and compound B33 solutions (500 nM) were incubated with the microarray, respectively. Then the slides were thoroughly washed, dried, and imaged by a fluorescent scanner using green channel. […] By quantifying the fluorescence intensity of each spot, the bindings of TO and compound B33 were further investigated. The kernel density estimate (KDE) plot and violin plot represented the distribution of the binding signals throughout the whole microarray. […] Compound B33 spectrum spanned a much wider range than that of TO. In the violin plot (FIG. 37C), the mean SNR value of TO group was 12, much higher than that of the compound B33 group. […] Furthermore, the selectivity of the two compounds were quantitatively profiled by using Gini coefficient. Gini coefficient, initially used as an economic concept, has been applied in profiling the selectivity/promiscuity of kinase inhibitors as well as RNA binders. A higher Gini value represents a better selectivity of a compound (Gini coefficient>0.75 is considered an excellent selectivity). The Gini coefficient based on the SNRs in the microarray.

[4] = biological target: MYCN G4 DNA (2-AP at A11); experiment: 2-Aminopurine (2-AP) fluorescence titration, A11-labeled MYCN G4; type: binding, human; settings: 2-AP at A11 of MYCN G4
Protocol: 2-Aminopurine (2-AP) fluorescence titration. Fluorescence titrations based on 2-aminopurine labeling were performed using the protocol reported previously. Briefly, MYCN G4 oligonucleotide with a 2-AP substitution at either A11 or A18 position was annealed by heating the sample to 95° C. for 5 min and cooling down to RT slowly. The oligonucleotide with folded structure was diluted to 10 μM in Tris buffer (10 mM Tris, pH7.0, 100 mM KCl, 0.005% Tween 20) and prepared in a black 96-well plate (Costar) in triplicate as designed. Small molecules were diluted in DMSO to obtain a series of solutions with concentrations ranging from 0.1 to 5 mM, and then diluted by 20 times added into the plate (5% DMSO final concentration). The final concentration of 2-AP DNA was 1 μM in the well plate. To obtain the background fluorescence, small molecule solutions without DNA were also prepared in the same plate. After incubation for 30 min at RT, the plate was briefly centrifuged and scanned in Synergy Mx microplate reader (BioTek) with Ex 310 nm/Em 365 nm. Fluorescence signals were calculated by averaging the intensities in triplicate wells after subtracting the references. Finally, the binding signals were normalized and the KD value was determined by fitting the curve using a nonlinear sigmoidal dose-response model with a variable slope in GraphPad Prism 8.3.1 software.

[5] = system: MYCN G4 DNA (hairpin minor groove); experiment: Fluorescence displacement assay with Hoechst 33258; type: binding, human; settings: competitor added at 5 μM or 50 μM during DNA titration
Protocol: Fluorescence displacement assay. Fluorescence displacement assays were carried out by using two classical minor groove binders (Hoechst 33258 and netropsin). Hoechst 33258, as a fluorophore, was prepared at 5 μM concentration in the buffer (10 mM Tris, pH7.0, 100 mM KCl), and then titrated with different concentrations of unlabeled MYCN G4 oligonucleotides. For displacement, either compound MY-1 or netropsin was added into the solution resulting in a final concentration of 5 μM or 50 μM. Fluorescence signals were obtained with an excitation wavelength of 352 nm and an emission wavelength of 500 nm.

solubility / aggregation [1]: had solubility in suitable buffers
SMILES: COc1ccc(-c2noc(-c3ccc(NCCC4=CCCCC4)nn3)n2)cc1 [MY-4]

Kd (MYCN G4 DNA; MYCN hairpin G4, SPR titration, read-out: KD by SPR): 303 ± 32 nM | binding to dsDNA on SPR (dsDNA): bound to dsDNA at low micromolar level | Kd (MYCN hairpin-G4 DNA): 311 ± 52 nM
SMILES: COc1ccc(-c2noc(-c3ccc(NCCNc4c5ccc(Cl)cc5nc5ccc(OC)cc45)nn3)n2)cc1 [B32, N1-(6-chloro-2-methoxyacridin-9-yl)-N2-(6-(3-(4-methoxyphenyl)-1,2,4-oxadiazol-5-yl)pyridazin-3-yl)ethane-1,2-diamine]

binding to the 620 G4 and non-G4 controls ([3]; 340 G4s and 280 non-G4s): binding to both G4s and non-G4s
SMILES: CN1C(=Cc2cc[n+](C)c3ccccc23)Sc2ccccc21 [TO]
binding pattern in G4 microarray [2]: binding to most of the oligos except for dsDNA/ssDNA | Gini coefficient ([3]; based on SNRs in the microarray): 0.236 | mean SNR value ([3]; whole microarray): 12

Kd (MYCN G4 DNA; MYCN G4, Langmuir 1:1 model, read-out: SPR KD): 2600 ± 1900 nM | A11 2AP KD [4]: sub-micromolar binders | Kd [4]: 200 ± 30 nM | solubility / aggregation [1]: aggregation potential/poor solubility
SMILES: COc1ccc(-c2noc(-c3ccc(NCCCN4CCC(N5CCCCC5)CC4)nn3)n2)cc1 [MY-2]

SMILES: Cn1cc(NC(=O)c2cc(NC(=O)CN=C(N)N)cn2C)cc1C(=O)NCCC(=N)N [Netropsin, reference compound]
displacement of Hoechst 33258 (decrease in fluorescence intensity) [5]: significant displacement

solubility / aggregation [1]: had solubility in suitable buffers
SMILES: COc1ccc(-c2noc(-c3ccc(NCCc4ccccc4)nn3)n2)cc1 [MY-9]
